Experimental data published in US20250177412A1, “SMALL-MOLECULE INHIBITORS TARGETING THE BOB1/OCT1 INTERFACE” (NANTES UNIVERSITE, priority 2022, published 2025).

Biological target: T1, POU domain of OCT1 (POU1) (Homo sapiens, UniProt P14859)
T1 construct: 6xHis (pET28 N-terminal histidine tag) (N); made in house; host or cells: E. coli BL21
T1 sequence (P14859 280-438): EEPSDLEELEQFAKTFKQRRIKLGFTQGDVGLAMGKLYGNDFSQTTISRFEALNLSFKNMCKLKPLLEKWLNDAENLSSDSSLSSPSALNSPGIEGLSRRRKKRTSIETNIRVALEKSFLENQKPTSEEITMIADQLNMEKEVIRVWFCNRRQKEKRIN
Test: Thermal shift assay (TSA)
Assay type: binding
Settings: compound 10 μM, POU1 5 μM
Experimental: Following primers were used for the amplification:
POU1 and BOB1 proteins (each at a final concentration 5 μM), compound 005 (final concentration 10 μM), and 1× ProteOrange fluorescent dye (Lumiprobe, Russia) were mixed in triplicates in 100 μL of 0.1 M phosphate buffered saline pH 7.4 per and pipetted into 96-well 0.2-mL thin-wall PCR plates (Roche Life Science, Switzerland) sealed with optical-grade sealing film. Fluorescence data were acquired on a LightCycler® 96 Real Time PCR Instrument (Roche Life Science, Switzerland) with an excitation range of 470-533 nm. The fluorescence emission signal at […] was measured for data analysis. The temperature was held for 30 sec per degree from 37 to 98° C. (ramp rate of […]). The derivatives of the fluorescence signal as function of the temperature were used for further analysis.

Cc1ccc(NC(=O)C2CN(c3nc(NCCCc4ccc(F)cc4)nc(NCCC(=O)O)n3)c3ccccc3O2)cc1Cl (stereo not shown) [compound 005, 3-((4-(2-((3-chloro-4-methylphenyl)carbamoyl)-2,3-dihydro-4H-benzo[b][1,4]oxazin-4-yl)-6-((3-(4-fluorophenyl)propyl)amino)-1,3,5-triazin-2-yl)amino)propanoic acid]
increase of POU1 melting temperature: about 4 °C
